{"source": "patent US20040215284A1", "about": "“Treatment of neuromuscular dysfunction of the lower urinary tract with selective mGlu5 antagonists” (Recordati S.A., priority 2003, published 2004)", "key": {"[1]": {"tested_on": "rhythmic bladder-voiding contractions in anaesthetised rats", "assay": "Rhythmic bladder-voiding contractions induced by bladder filling in anaesthetised rats", "format": "in vivo, rat", "conditions": "for BLADDER CONTRACTIONS quiescence time: mean ± SEM; for ED10min (extrapolated dose inducing 10 min of bladder quiescence): linear regression", "description": "The animals were housed with free access to food and water and maintained on a forced 12-hour alternating light-dark cycle at 22-24° C. for at least one week, except during the experiment. […] The catheter was tied in place with a ligature around the external urethral orifice and was connected to conventional pressure transducers (Statham P23 ID/P23 XL). […] The bladder was then filled via the recording catheter by incremental volumes of warm (37° C.) saline until reflex bladder-voiding contractions occurred (usually 0.8-1.5 ml). For intravenous injection of bioactive compounds, PE 50 polyethylene tubing filled with physiological saline was inserted into the jugular vein.\nFrom the cystometrogram, the number of contractions recorded 15 minutes before (basal values) and after treatment, as well as the mean amplitude of these contractions (mean height of the peaks in mmHg), were evaluated.\nMorphine was tested, too, as a reference standard for this model."}, "mGlu5 [2]": {"molecular_target": "T1, mGlu5 (Rattus norvegicus, UniProt P31424)", "T1 sequence (P31424 21-1203)": "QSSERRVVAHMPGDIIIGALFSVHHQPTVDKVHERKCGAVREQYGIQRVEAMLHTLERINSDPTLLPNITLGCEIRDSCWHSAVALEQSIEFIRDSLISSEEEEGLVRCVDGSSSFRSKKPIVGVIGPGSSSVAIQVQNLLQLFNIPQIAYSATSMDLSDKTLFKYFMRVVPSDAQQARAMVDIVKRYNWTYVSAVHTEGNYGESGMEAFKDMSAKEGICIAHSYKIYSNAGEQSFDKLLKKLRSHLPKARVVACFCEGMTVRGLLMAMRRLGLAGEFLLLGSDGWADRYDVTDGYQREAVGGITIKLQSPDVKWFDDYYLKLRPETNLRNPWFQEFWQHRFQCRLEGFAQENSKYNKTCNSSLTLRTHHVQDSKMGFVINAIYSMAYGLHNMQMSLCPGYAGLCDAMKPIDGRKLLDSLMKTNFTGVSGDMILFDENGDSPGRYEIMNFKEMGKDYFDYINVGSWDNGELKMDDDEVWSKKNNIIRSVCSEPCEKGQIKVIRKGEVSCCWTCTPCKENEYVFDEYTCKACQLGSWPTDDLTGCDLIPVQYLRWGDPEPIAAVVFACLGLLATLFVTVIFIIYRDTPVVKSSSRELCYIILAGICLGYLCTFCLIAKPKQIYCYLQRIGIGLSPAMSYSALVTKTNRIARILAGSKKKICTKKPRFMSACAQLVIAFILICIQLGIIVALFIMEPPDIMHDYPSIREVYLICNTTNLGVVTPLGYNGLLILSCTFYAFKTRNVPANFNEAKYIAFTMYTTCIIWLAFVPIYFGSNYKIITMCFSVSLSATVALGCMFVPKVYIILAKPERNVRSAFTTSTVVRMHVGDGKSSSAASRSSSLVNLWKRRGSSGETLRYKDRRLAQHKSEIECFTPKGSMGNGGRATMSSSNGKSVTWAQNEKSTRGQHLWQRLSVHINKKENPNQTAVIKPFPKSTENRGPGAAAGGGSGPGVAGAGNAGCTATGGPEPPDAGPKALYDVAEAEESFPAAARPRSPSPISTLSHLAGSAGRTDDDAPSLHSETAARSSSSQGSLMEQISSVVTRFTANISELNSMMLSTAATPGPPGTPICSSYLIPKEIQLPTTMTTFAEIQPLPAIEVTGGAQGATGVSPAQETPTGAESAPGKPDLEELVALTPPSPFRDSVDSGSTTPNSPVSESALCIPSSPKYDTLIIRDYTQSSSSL", "conditions": "rat forebrain", "experimental": "(§1) Male Sprague Dawley rats (200-300 g, Charles River, Italy) were killed by cervical dislocation and the forebrain (cortex, striatum and hippocampus) and cerebellum were homogenized (2×20 sec) in 50 vols of cold 50 mM Tris buffer pH 7.4, using a Politron homogenizer (Kinematica). […] The final pellets were frozen and stored at −80° C. until use.\n(§2) ii) mGlu5: On experimental section pellets from rat forebrain were resuspended in 100 vols of 20 mM HEPES, 2 mM MgCl2, 2 mM CaCl2, pH 7.4.\n(§3) The filters were then washed with cold buffer and the radioactivity retained on the filters was counted by liquid scintillation spectrometry.\n(§4) Data were expressed as the mean of pKi(−log Ki)±SE."}, "mGlu5 [3]": {"molecular_target": "T1, mGlu5", "assay": "biochemical", "experimental": "as §1, §2, §3, §4"}, "mGlu1": {"molecular_target": "T2, mGlu1 (Rattus norvegicus, UniProt P23385)", "T2 construct": "pellets from rat cerebellum were resuspended; from tissue; host or cells: rat cerebellum membranes (male Sprague Dawley)", "T2 sequence (P23385 19-1199)": "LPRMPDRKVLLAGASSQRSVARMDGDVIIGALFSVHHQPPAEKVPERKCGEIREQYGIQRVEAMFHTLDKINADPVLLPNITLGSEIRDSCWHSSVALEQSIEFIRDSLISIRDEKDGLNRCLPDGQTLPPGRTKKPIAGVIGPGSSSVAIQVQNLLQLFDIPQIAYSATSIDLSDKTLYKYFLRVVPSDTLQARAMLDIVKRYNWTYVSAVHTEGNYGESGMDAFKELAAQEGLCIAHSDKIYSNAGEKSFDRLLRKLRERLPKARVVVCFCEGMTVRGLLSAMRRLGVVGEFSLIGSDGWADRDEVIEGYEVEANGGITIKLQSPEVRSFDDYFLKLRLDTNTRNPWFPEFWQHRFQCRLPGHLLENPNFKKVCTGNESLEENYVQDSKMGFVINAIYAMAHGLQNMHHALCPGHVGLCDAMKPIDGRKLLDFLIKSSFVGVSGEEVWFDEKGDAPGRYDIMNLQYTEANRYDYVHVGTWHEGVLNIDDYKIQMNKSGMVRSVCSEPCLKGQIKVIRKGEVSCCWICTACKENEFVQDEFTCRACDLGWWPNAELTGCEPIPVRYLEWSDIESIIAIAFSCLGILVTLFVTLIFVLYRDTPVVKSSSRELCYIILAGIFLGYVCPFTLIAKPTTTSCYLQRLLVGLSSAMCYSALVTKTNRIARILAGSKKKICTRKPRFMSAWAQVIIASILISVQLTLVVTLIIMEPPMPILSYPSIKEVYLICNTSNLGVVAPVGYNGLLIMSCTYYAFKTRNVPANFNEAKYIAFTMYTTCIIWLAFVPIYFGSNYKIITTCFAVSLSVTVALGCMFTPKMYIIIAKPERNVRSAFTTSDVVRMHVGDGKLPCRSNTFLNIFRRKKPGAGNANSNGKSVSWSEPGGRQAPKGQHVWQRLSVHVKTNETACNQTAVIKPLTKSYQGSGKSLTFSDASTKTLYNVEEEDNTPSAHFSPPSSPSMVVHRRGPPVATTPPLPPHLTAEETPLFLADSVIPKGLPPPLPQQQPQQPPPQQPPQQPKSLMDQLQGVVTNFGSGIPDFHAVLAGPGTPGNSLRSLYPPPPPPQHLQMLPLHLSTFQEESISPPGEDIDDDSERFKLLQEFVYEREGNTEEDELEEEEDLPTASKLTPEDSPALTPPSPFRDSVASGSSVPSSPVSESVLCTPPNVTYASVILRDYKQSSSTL", "assay": "Radioligand binding assay at mGlu1, [3H]quisqualic acid, rat cerebellum membranes", "conditions": "[3H]quisqualic acid", "experimental": "as §1\ni) mGlu1: On experimental section pellets from rat cerebellum were resuspended in 150-200 vols of 20 mM N-2-hydroxyethylpiperazine-N′-2-ethanesulfonic acid (HEPES), 2 mM MgCl2, 2 mM CaCl2, pH 7.4.\nas §3, §4"}, "mGlu4a": {"molecular_target": "mGlu4a (Homo sapiens, UniProt Q14833)", "sequence (Q14833 33-912)": "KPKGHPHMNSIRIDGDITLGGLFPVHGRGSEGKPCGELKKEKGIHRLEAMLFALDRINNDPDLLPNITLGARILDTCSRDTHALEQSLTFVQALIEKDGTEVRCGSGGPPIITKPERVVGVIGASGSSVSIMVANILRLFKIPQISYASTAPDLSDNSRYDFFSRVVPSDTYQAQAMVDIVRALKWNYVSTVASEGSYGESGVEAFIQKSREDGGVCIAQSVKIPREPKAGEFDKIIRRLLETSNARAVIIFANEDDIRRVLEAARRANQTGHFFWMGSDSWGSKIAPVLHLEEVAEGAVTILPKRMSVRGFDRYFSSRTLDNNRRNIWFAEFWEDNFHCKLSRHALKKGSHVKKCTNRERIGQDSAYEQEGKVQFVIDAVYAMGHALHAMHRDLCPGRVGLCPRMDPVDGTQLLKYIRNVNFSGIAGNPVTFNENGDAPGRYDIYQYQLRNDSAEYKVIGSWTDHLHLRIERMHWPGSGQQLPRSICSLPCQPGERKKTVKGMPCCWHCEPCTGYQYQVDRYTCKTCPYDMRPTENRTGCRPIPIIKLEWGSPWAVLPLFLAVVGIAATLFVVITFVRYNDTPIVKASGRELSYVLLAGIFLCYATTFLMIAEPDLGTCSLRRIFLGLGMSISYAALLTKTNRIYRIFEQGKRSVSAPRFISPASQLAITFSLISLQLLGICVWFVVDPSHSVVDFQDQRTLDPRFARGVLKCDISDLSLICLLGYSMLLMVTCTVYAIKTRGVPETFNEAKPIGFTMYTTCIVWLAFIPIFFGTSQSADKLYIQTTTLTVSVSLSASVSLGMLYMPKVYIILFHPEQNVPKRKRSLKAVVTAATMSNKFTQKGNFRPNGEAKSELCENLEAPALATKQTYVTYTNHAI", "conditions": "literature, functional models; cited from earlier work"}, "mGlu5a": {"molecular_target": "mGlu5a (Homo sapiens, UniProt P41594)", "conditions": "literature, functional models; cited from earlier work"}, "[4]": {"molecular_target": "Group II (mGlu2 + mGlu3) receptors", "assay": "Radioligand binding assay at Group II (mGlu2+mGlu3), [3H]LY341495, rat forebrain membranes", "experimental": "as §1\niii) Group II (mGlu2+mGlu3): On experimental section pellets from rat forebrain were resuspended in 250 vols of 20 mM HEPES, 2 mM MgCl2, 2 mM CaCl2, pH 7.4. The membranes were incubated in a final volume of 1 ml for 30 min at 0° C. with 1 nM [^3H]LY341495 in the absence or presence of competing drugs.\nas §3, §4"}, "mGlu8": {"molecular_target": "mGlu8 (Homo sapiens, UniProt O00222)", "conditions": "literature, functional models; cited from earlier work"}, "mGlu7": {"molecular_target": "mGlu7 (Homo sapiens, UniProt Q14831)", "sequence (Q14831 35-915)": "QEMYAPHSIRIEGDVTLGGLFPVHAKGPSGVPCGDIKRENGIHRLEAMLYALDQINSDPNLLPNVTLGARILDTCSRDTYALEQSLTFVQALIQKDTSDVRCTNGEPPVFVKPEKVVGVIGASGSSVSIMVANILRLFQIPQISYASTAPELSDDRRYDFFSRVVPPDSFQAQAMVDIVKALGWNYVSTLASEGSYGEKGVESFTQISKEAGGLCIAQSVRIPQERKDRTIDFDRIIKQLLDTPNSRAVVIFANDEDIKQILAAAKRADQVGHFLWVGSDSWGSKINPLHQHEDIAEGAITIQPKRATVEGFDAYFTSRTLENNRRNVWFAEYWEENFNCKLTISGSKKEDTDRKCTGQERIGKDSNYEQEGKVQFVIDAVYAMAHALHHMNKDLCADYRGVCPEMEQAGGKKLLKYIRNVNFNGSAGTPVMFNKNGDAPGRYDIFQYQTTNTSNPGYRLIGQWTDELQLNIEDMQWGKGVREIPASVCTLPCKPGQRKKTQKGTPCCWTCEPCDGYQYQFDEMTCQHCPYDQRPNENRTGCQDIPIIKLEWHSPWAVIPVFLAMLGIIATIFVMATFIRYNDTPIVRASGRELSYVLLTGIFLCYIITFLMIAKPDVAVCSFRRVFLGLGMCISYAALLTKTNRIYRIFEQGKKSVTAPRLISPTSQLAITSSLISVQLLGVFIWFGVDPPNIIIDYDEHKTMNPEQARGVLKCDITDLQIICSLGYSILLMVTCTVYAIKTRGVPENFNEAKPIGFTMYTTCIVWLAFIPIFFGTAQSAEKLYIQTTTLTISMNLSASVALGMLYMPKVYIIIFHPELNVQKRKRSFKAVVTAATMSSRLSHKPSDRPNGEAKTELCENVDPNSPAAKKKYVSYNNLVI", "conditions": "literature, functional models; cited from earlier work"}, "conscious rats": {"tested_on": "conscious rats", "assay": "Cystometric parameters in conscious rats (bladder infused with saline)", "format": "in vivo, rat", "description": "Male Sprague-Dawley rats [Crl: CD® (SD) IGS BR] of 300-400 g b.w. supplied by Charles River Italia were used. The animals were housed with free access to food and water and maintained on a forced 12-hour-light/12-hour-dark cycle at 22-24° C. of temperature, except during the experiment. To quantify urodynamic parameters in conscious rats, cystometrographic studies were performed according to the procedure previously reported (Guarneri et al., Pharmacol. Res. 24: 75, 1991).\nBriefly, the rats were anaesthetized by intraperitoneal administration of 3 ml/kg of Equithensin solution (pentobarbital 30 mg/kg and chloral hydrate 125 mg/kg) and placed in a supine position. An approximately 10 mm long midline incision was made in the shaved and cleaned abdominal wall. The urinary bladder was gently freed from adhering tissues, emptied and then cannulated via an incision in the bladder body, using a polyethylene cannula (0.58 mm internal diameter, 0.96 mm external diameter) which was permanently sutured with silk thread. For intravenous bolus injection, a similar polyethylene tubing filled with physiological saline containing sodium heparin (40 I.U./ml) was inserted into the jugular vein. The cannulae were exteriorized through a subcutaneous tunnel in the retroscapular area, where they were connected to a plastic adapter in order to avoid the risk of removal by the animal. For drug testing, the rats were utilized one day after implantation.\nOn the day of the experiment, the rats were placed in modified Bollman cages, i.e., restraining cages that were large enough to permit the rats to adopt a normal crouched posture, but narrow enough to prevent turning around. After a stabilization period of about 20 minutes, the free tip of the bladder cannula was connected through a T-shaped tube to a pressure transducer (Statham P23XL) and to a peristaltic pump (Gilson minipuls 2) for continuous infusion of a warm (37° C.) saline solution into the urinary bladder, at a constant rate of 0.1 ml/minute. The intraluminal-pressure signal during infusion of saline into the bladder was continuously recorded on a polygraph (Rectigraph-8K San-ei with BM614/2 amplifier from Biomedica Mangoni) and, from the cystometrogram, two urodynamic parameters were evaluated: bladder volume capacity (BVC) and micturition pressure (MP). BVC (in ml) is defined as the volume of saline infused into the bladder necessary to induce detrusor contraction followed by micturition. MP (in mmHg) is defined as the maximal intravesical pressure caused by contraction during micturition. Basal BVC and MP values were evaluated as the mean of the values observed in the cystometrograms recorded in an initial period of 30-60 minutes. At this point in the assay, the infusion was interrupted and the test compounds were administered either intravenously by the jugular catheter or orally by a stomach tube. The bladder infusion restarted and changes in BVC and MP were evaluated from the mean values obtained in the cystometrograms observed during 1, 2, 3, 4, and 5 hours after treatment. The compounds were administered in a volume of 1 ml/kg and 2 ml/kg for intravenous and oral administration routes, respectively. Groups of control animals received the same amount of vehicle corresponding to a solution of 8% dimethylformamide and 8% Tween 80 in water (final concentrations) for intravenous, or a solution of 0.5% methocel in water for oral route.\nUnder the given test conditions, measurement of BVC is equivalent to measurement of interval time between micturitions.\nAll data were expressed as mean±standard error. The percent changes of BVC and MP relative to the basal values, as well as Δ values (difference in ml or in mmHg) of BVC and MP (BVC or MP at time “x” minus basal value), were also evaluated for each rat/time. In the figures, data were reported as percentage changes relative to basal values. […]"}, "mGlu1a": {"molecular_target": "mGlu1a (Homo sapiens, UniProt Q13255)", "conditions": "literature, functional models; cited from earlier work"}, "mGlu2": {"molecular_target": "mGlu2 (Homo sapiens, UniProt Q14416)", "conditions": "literature, functional models; cited from earlier work"}, "mGlu6": {"molecular_target": "mGlu6 (Homo sapiens, UniProt O15303)", "sequence (O15303 25-877)": "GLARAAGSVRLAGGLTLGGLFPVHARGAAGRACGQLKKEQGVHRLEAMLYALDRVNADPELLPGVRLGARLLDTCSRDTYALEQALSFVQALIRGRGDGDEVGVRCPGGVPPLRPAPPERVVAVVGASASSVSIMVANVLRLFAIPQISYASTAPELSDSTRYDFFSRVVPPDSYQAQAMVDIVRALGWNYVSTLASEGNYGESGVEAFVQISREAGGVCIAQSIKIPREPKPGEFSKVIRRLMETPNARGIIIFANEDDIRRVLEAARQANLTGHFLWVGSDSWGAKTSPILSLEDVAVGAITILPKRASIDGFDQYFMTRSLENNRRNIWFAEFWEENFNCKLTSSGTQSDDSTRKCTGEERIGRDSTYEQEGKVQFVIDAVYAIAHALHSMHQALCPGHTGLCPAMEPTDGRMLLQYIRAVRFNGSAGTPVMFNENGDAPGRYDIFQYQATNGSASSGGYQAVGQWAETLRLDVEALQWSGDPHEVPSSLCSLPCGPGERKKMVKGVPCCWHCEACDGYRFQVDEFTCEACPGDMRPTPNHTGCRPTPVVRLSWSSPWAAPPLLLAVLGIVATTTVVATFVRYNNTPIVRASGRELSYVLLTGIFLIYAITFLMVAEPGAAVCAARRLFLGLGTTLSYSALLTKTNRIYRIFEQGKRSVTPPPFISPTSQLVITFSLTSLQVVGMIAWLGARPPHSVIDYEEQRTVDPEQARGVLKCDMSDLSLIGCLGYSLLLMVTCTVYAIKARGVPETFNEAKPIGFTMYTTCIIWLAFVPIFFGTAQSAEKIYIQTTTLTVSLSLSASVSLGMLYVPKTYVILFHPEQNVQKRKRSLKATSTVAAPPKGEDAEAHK", "conditions": "literature, functional models; cited from earlier work"}}}
{"smiles": "Cc1nc(C#Cc2cccnc2)cs1", "note": "[MTEP, 3-(2-methylthiazol-4-yl)ethynylpyridine]", "values": [{"measurement": "BLADDER CONTRACTIONS quiescence time", "setting": "[1]; 30 μg/kg i.v.", "value": "5.52 ± 1.09", "unit": "min"}, {"measurement": "BLADDER CONTRACTIONS quiescence time", "setting": "[1]; 100 μg/kg i.v.", "value": "8.73 ± 2.11", "unit": "min"}, {"measurement": "BLADDER CONTRACTIONS quiescence time", "setting": "[1]; 300 μg/kg i.v.", "value": "13.90 ± 2.10", "unit": "min"}, {"measurement": "BLADDER CONTRACTIONS quiescence time", "setting": "[1]; 1000 μg/kg i.v.", "value": "20.96 ± 4.66", "unit": "min"}, {"measurement": "activity as inhibitors of isovolumic voiding contractions (in words)", "setting": "[1]; i.v., anaesthetised rats", "value": "active"}, {"measurement": "ED10min (extrapolated dose inducing 10 min of bladder quiescence)", "setting": "[1]; i.v.", "value": 0.106, "unit": "mg/kg"}, {"measurement": "inhibition of the specific binding of [3H]MPEP to mGlu5 receptor (in words)", "setting": "mGlu5 [2]", "value": "most potent inhibitors"}]}
{"smiles": "CN1CC[C@]23c4c5ccc(O)c4O[C@H]2[C@@H](O)C=C[C@H]3[C@H]1C5", "note": "[Morphine]", "values": [{"measurement": "BLADDER CONTRACTIONS quiescence time", "setting": "[1]; 10 μg/kg i.v.", "value": "2.76 ± 0.93", "unit": "min"}, {"measurement": "BLADDER CONTRACTIONS quiescence time", "setting": "[1]; 30 μg/kg i.v.", "value": "6.89 ± 2.11", "unit": "min"}, {"measurement": "BLADDER CONTRACTIONS quiescence time", "setting": "[1]; 100 μg/kg i.v.", "value": "13.83 ± 2.40", "unit": "min"}, {"measurement": "BLADDER CONTRACTIONS quiescence time", "setting": "[1]; 300 μg/kg i.v.", "value": "18.17 ± 3.60", "unit": "min"}, {"measurement": "ED10min (extrapolated dose inducing 10 min of bladder quiescence)", "setting": "[1]; i.v.", "value": 0.05, "unit": "mg/kg"}]}
{"smiles": "Cc1cccc(C=Cc2ccccc2)n1", "note": "[SIB 1893, 2-methyl-6-(2-phenylethenyl)pyridine]", "values": [{"measurement": "Ki", "setting": "mGlu5 [3]", "value": 0.859, "unit": "µM"}, {"measurement": "Ki", "setting": "mGlu1", "value": "> 10", "unit": "µM"}, {"measurement": "IC50", "setting": "mGlu4a", "value": "> 30", "unit": "µM"}, {"measurement": "BLADDER CONTRACTIONS quiescence time", "setting": "[1]; 1000 μg/kg i.v.", "value": "4.44 ± 1.05", "unit": "min"}, {"measurement": "BLADDER CONTRACTIONS quiescence time", "setting": "[1]; 2000 μg/kg i.v.", "value": "8.00 ± 0.78", "unit": "min"}, {"measurement": "BLADDER CONTRACTIONS quiescence time", "setting": "[1]; 3000 μg/kg i.v.", "value": "15.57 ± 1.34", "unit": "min"}, {"measurement": "activity as inhibitors of isovolumic voiding contractions (in words)", "setting": "[1]; i.v., anaesthetised rats", "value": "active"}, {"measurement": "amplitude of contractions when contractions resumed, relative to before treatment (in words)", "setting": "[1]; i.v., anaesthetised rats", "value": "no difference in the amplitude"}, {"measurement": "ED10min (extrapolated dose inducing 10 min of bladder quiescence)", "setting": "[1]; i.v.", "value": 1.928, "unit": "mg/kg"}, {"measurement": "IC50", "setting": "mGlu5a", "value": 0.3, "unit": "µM"}, {"measurement": "Ki", "setting": "[4]; rat forebrain, [3H]LY341495", "value": "> 10", "unit": "µM"}, {"measurement": "inhibition of the specific binding of [3H]MPEP to mGlu5 receptor (in words)", "setting": "mGlu5 [2]", "value": "weaker affinity"}, {"measurement": "IC50", "setting": "mGlu8", "value": "> 30", "unit": "µM"}, {"measurement": "IC50", "setting": "mGlu7", "value": "> 30", "unit": "µM"}, {"measurement": "bladder volume capacity (BVC)", "setting": "conscious rats; 50 mg/kg i.v., FIG. 1", "value": "significantly increased the BVC only in comparison with the basal values"}, {"measurement": "micturition pressure (MP)", "setting": "conscious rats; i.v., MPEP 3 and 10 mg/kg, SIB 1893 50 mg/kg, FIG. 2", "value": "only mild effects on the micturition pressure"}, {"measurement": "IC50", "setting": "mGlu1a", "value": "> 30", "unit": "µM"}, {"measurement": "IC50", "setting": "mGlu2", "value": "> 30", "unit": "µM"}, {"measurement": "IC50", "setting": "mGlu6", "value": "> 30", "unit": "µM"}]}
{"smiles": "N[C@](CC1c2ccccc2Oc2ccccc21)(C(=O)O)[C@H]1C[C@@H]1C(=O)O", "note": "[[^3H]LY341495]", "values": [{"measurement": "Kd", "setting": "[4]; rat forebrain membranes, saturable binding, read-out: Kd of radioligand binding to mGlu2+mGlu3 subtypes", "value": 0.0025, "unit": "µM"}]}
